The target of experiment [1] is Isoleucine--tRNA ligase (Escherichia coli K-12, UniProt P00956). As to the kind of experiment: Inhibition of recombinant Escherichia coli BL21(DE3) isoleucyl-tRNA synthetase expressed in Escherichia coli Rosetta 2 (DE3) assessed as reduction in tRNA aminoacylation preincubated for 10 mins in presence of [14C]-isoleucin and tRNA followed by ATP addition and measured after 6 mins by scintillation counting method.

Experiment [2] deals with Serine--tRNA ligase (Escherichia coli (strain K12)) (UniProt P0A8L1). As to the kind of experiment: Inhibition of recombinant Escherichia coli BL21(DE3) seryl-tRNA synthetase expressed in Escherichia coli Rosetta 2 (DE3) assessed as reduction in tRNA aminoacylation at 2 uM preincubated for 10 mins in presence of [14C]-isoleucin and tRNA followed by ATP addition and measured after 6 mins by scintillation counting method.
Sequence of Serine--tRNA ligase (Escherichia coli (strain K12)) (P0A8L1 whole entry, looked up): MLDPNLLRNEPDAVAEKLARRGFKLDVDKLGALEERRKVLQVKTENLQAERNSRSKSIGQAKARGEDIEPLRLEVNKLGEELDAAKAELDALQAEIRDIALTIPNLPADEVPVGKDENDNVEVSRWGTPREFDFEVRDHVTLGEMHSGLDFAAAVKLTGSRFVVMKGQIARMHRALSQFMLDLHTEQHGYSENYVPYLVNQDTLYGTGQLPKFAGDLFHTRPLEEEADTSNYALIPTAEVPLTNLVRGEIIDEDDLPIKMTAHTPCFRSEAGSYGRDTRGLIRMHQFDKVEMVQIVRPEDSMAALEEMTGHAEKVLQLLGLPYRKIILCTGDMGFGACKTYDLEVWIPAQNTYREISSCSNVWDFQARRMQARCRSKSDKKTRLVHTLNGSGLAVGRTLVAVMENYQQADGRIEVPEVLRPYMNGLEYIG

The structures appear in SMILES notation.

Sequence of Isoleucine--tRNA ligase (P00956 whole entry): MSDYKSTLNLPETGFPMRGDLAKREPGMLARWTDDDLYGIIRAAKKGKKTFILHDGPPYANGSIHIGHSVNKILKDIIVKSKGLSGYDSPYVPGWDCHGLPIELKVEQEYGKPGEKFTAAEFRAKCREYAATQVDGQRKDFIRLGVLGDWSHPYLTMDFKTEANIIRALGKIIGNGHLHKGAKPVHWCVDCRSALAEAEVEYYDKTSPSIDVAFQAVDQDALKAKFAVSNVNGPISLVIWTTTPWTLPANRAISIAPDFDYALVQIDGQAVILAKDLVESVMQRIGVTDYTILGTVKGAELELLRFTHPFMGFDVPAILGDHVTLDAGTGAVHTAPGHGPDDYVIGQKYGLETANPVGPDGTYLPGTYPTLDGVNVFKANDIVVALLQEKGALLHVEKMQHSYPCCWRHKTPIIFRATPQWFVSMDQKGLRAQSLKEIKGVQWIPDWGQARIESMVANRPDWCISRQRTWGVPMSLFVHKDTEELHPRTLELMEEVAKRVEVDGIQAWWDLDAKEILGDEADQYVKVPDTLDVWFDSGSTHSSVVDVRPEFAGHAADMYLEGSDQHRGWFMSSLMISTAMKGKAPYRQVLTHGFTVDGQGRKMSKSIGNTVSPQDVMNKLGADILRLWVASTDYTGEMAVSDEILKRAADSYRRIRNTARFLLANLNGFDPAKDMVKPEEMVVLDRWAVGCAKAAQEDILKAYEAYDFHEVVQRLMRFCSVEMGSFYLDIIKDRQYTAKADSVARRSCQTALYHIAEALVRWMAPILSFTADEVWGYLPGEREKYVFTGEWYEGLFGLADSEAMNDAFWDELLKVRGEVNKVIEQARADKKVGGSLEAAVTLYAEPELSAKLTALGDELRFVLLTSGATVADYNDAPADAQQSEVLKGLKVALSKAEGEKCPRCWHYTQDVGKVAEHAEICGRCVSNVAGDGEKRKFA

As usually defined, the IC50 is the midpoint of a concentration-inhibition curve. On to `CC[C@H](C)[C@H](N)C(=O)NS(=O)(=O)CC[C@H]1O[C@@H](n2cnc3c(N)ncnc32)[C@H](O)[C@@H]1O`, for which, in experiment [1], the IC50 is 6.8 nM. For the same molecule, the Ki in experiment [1] (read-out: Ki(app)) turned out to be 1.2 nM.

Broadly, the inhibition is the change of the read-out against control, counted positive when it falls. In the case of `Nc1ncnc2c1ncn2[C@@H]1O[C@H](CCS(=O)(=O)NC(=O)[C@@H](N)CO)[C@@H](O)[C@H]1O`, in experiment [2], the inhibition stood at 30%.

These data come from ChEMBL document CHEMBL4393690, “Acylated sulfonamide adenosines as potent inhibitors of the adenylate-forming enzyme superfamily” (Eur J Med Chem, 2019).
